Results: patent publication US11364231B2, “Methods of treating radiation induced gastrointestinal syndrome (RIGS) and related disease states using YEL002/BCN057” (priority 2017, dated 2022)
Entries after “also recorded” stand apart in the source; their conditions may differ.

Experiments:
[1] = tested on: intestinal crypt organoids from Lgr5/EGFP-IRES-Cre-ERT2 knock in mice; assay: Ex vivo irradiated mouse intestinal crypt organoids; format: cell-based
Excerpt: To analyze the effect of BCN057 on ISC population, an ex vivo primary intestinal culture system exposed to graded doses of irradiation was developed. Intestinal crypt isolated from Lgr5/EGFP-IRES-Cre-ERT2 knock in mice to allow the visualization of the ISCs. At a dose level of 8 Gy most of the Lgr5+ve ISCs had disappeared within 48 hrs resulting significant loss of budding crypt with changes in existing crypt morphology indicating inhibition of ISC growth and differentiation in response to radiation exposure. […] A representative microscopic image of effect of BCN057 on budding crypt having Lgr5+ve ISCs (GFP+ve cells indicated with arrow) is shown in FIG. 10.
Small intestine from Lgr5-GFP mice, or their littermates control mice was used for crypt isolation and development of ex vivo organoid culture. The tissue was scraped for removing villi and chopped into˜5 mm pieces. Then tissue was washed with cold PBS, and incubated in dissociation buffer for 20 mins in rotor at room temperature. The tissue fragments were suspended vigorously with a 10-ml pipette in cold 0.1% BSA in PBS, yielding supernatants enriched in epithelial cells. […] The number of organoids per well was counted on microscopic images. […] Total number of crypt structures and number of budding crypts were counted and expressed as a ratio of budding crypts/total crypt structure.

[2] = tested on: HEK293 cells having TCF/LEF luciferase reporter construct; assay: TCF/LEF (Topflash) reporter assay; format: cell-based, human; settings: graded doses of BCN057 vs vehicle control, 24 hr
Description: To determine the canonical WNT activity of BCN057 HEK293 cells (Signosis, Santa Clara, Calif.) having TCF/LEF luciferase reporter construct were treated with BCN057 or vehicle control or PBS. LiCl (10 mM) treatment was used as positive control for luciferase activity. Luciferase activity was determined 24 hr after using Dual-Luciferase Reporter Assay System (Promega) as per manufacturer's protocol. HEK293 cells having FOPFLASH construct (mutated TCF/LEF-binding site) were used as negative control. HEK293 (human embryonic kidney) cell line was routinely characterized in the lab based on morphology and gene-expression patterns. Cells were confirmed to be free of mycoplasma contamination.

[3] = tested on: NCI 60 cancer cell lines; assay: NCI 60 cancer cell line screen; format: cell-based; settings: BCN057 10 uM, 48 hours, sulforhodamine B assay
Description: BCN057 was first examined in the National Cancer Institute (NCI) 60 cancer cell line platform. Several of these cell lines are known to be positive for dysregulation of the Wnt/b-catenin signaling pathway. […] Next we examined the effect of BCN057 in human colonic tumor derived organoids exposed to irradiation.
100 μL of each cell preparation was tested in accordance with its particular type and density, ranging from 5000-40,000 cells per well in a 96-well microtiter plate, corresponding to their own growth rate. BCN057 was evaluated 10 uM and incubation for 48 hours in a 5% CO2 atmosphere with 100% humidity. Proliferation was assayed using the sulforhodamine B assay with a plate reader to read the optical densities.

[4] = tested on: Lgr5+ve ISC in Lgr5/GFP-IRES-Cre-ERT2 knock-in mice; assay: Lgr5+ve ISC survival in vivo after AIR; settings: 15 Gy AIR then BCN057; beyond 48 hrs post AIR, p<0.001
Excerpt: To study this effect in vivo, the role of BCN057 in ISC survival was examined by exposing Lgr5/GFP-IRES-Cre-ERT2 knock-in mice to 15 Gy to AIR and then treated with BCN057. Lgr5+ve ISC had disappeared from crypt base within 48 hrs post AIR in untreated mice.

[5] = tested on: MC38 colon tumor; assay: MC38 colon tumor in the flank with AIR; format: in vivo, mice
Excerpt: FIG. 18. […] I) Schematic diagram of BCN057 treatment in C57B16 mice having MC38 colon tumor in the flank. Mice were exposed to AIR (15Gy) and then treated with BCN057 at 24 hrs post exposure. Ii) Representative image of C57B16 mice having MC38 colon tumor in the flank. Note reduction in tumor size in irradiated or un-irradiated tumor treated with BCN057 at day 20 post AIR. Mice exposed to AIR without BCN057 treatment are not part of this image as they died within day 15 post AIR.
Subcutaneous tumors were developed by injecting MC38 colon cancer cell in the flank. Mice with palpable, subcutaneous tumor were treated with AIR (16Gy) followed by eight doses of BCN057. AIR reduced the tumor growth but invariably produced 100% mortality of animals with a median survival time of 14+2 days.
Mice were injected subcutaneously with 1×105 MC38 (colon carcinoma cell line) cells on the flank, respectively. About 10 days later, the tumor became palpable (3-5 mm in diameter), whereupon abdominal irradiation 16 Gy was delivered. Mice were divided into 4 groups (n=10/group) receiving no treatment, AIR, BCN057 and BCN057 plus AIR. Animals received BCN057 eight times starting 24 hrs after AIR. Tumor measurements were performed thrice weekly using Vernier calipers along with simultaneous physical assessment of signs of systemic toxicity (malaise and diarrhea).

[6] = tested on: β-catenin target genes; assay: Real-time PCR of β-catenin target genes in crypt cells; format: in vivo; settings: crypt epithelial cells, irradiated mice treated with BCN057 vs irradiated control
Description: To compare the mRNA levels of β-catenin target genes in intestinal crypt cells from irradiated mice treated with BCN057 or PBS real-time PCR were performed using primer pairs for the genes Ephb2, Ascl, Olf, Tcf, Lef, Sox9 and Axin. RNA was isolated from crypt cells using RNeasy mini kit from Qiagen. Preparation of cDNA followed by real-time PCR array was performed according to manufacturer protocol (Qiagen).

COc1ccc2cc(-c3nc4ccc(C)cn4c3NCc3ccco3)c(=O)[nH]c2c1 [BCN057, 3-(3((furan-2-ylmethyl)ammo)-6-methylimidazo[1,2-a]pyridine-2-yl)-6-methoxyquinolin-2(1H)-one]
organoid growth / ratio of budding crypt to total crypt ([1]; 8 Gy, BCN057 10 uM at 1 hr after irradiation): restored the number of budding crypts to un-irradiated levels; also recorded: improved the organoid growth
Lgr5+ve ISCs in organoids ([1]; 8Gy, BCN057 treated vs irradiated control): recused Lgr5+ve ISCs; also recorded: increases the presence of Lgr5+ve cells
Luciferase activity (WNT activity) [2]: significant increase; also recorded: higher Luciferase activity; also recorded: strong WNT activity
proliferative response [3]: None of these cells showed any proliferative response
Lgr5+ve ISC in jejunal crypts [4]: significant preservation; also recorded: presence of GFP+ve Lgr5+ve ISCs
mice surviving beyond 30 days ([5]; AIR (16Gy) followed by eight doses of BCN057, AIR alone 100% mortality, n=10): 75%
tumor growth ([5]; AIR + BCN057 vs un-irradiated untreated control): significant tumor growth retardation; also recorded: significant reduction of tumor growth
tumor growth ([5]; BCN057 in un-irradiated mice vs un-irradiated untreated control): reduces the tumor growth
survival time ([5]; BCN057 post AIR vs AIR alone): significant improvement in survival time
mRNA level of β-catenin target genes [6]: several fold increases
